Assays:
[1] = system: Mast/stem cell growth factor receptor Kit (Homo sapiens), P10721 [V560G]; assay: Inhibition of recombinant human C-Kit V560G mutant (544 to end residues) assessed as residual activity at 10 uM poly(Glu, Tyr) 4:1 as substrate incubated 40 mins in presence of [gamma-33ATP] by scintillation counting based radiometry assay relative to control
[2] = target: Protein kinase C iota type (Homo sapiens) (UniProt P41743); assay: Inhibition of recombinant full-length human PKCiota assessed as residual activity at 10 uM using ERMRPRKRQGSVRRRV as substrate incubated for 40 mins in presence of [gamma33P]ATP by scintillation counting based radiometry assay relative to control
[3] = target: Tyrosine-protein kinase Lyn (Homo sapiens) (UniProt P07948); assay: Inhibition of recombinant human Lyn assessed as residual activity at 10 uM using poly(Glu, Tyr) 4:1 as substrate after 40 mins in presence of [gamma-33ATP] by scintillation counting based radiometry assay relative to control
Tyrosine-protein kinase Lyn (Homo sapiens), sequence (P07948 2-512 limits assumed): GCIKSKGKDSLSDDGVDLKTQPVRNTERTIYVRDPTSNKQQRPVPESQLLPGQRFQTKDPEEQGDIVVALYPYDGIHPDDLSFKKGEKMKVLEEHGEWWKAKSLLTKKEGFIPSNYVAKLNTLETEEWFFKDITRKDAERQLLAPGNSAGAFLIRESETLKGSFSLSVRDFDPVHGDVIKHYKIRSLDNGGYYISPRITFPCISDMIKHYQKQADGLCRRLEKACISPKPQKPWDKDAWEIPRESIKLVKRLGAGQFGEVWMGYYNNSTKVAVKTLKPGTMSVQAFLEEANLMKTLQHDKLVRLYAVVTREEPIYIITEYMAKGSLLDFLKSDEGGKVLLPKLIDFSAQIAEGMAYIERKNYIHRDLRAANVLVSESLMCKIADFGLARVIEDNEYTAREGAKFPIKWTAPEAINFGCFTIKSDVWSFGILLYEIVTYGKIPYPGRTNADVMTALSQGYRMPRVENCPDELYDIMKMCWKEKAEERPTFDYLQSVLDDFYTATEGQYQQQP

[4] = system: Calcium/calmodulin-dependent protein kinase kinase 2 (Homo sapiens), Q96RR4 [T85S]; assay: Inhibition of recombinant full length human CaMKK2 T85S mutant assessed as residual activity at 10 uM using […] incubated for 40 mins in presence of [gamma-33ATP] by scintillation counting based radiometry assay relative to control
[5] = target: CDK12/Cyclin K (Homo sapiens) (UniProt O75909+Q9NYV4); assay: Inhibition of recombinant full length human CDK12/cyclinK assessed as residual activity at 10 uM using RSRSRSRSRSRSR as substrate incubated for 40 mins in presence of [gamma-33ATP] by scintillation counting based radiometry assay relative to control; assay type: protein-complex assay
[6] = target: cGMP-dependent protein kinase 2 (Homo sapiens) (UniProt Q13237); assay: Inhibition of recombinant full-length human PRKG2 assessed as residual activity at 10 uM using KKLRRTLSFAEPG as substrate incubated for 40 mins in presence of [gamma33P]ATP by scintillation counting based radiometry assay relative to control
[7] = target: Inhibitor of nuclear factor kappa-B kinase subunit alpha (Homo sapiens) (UniProt O15111); assay: Inhibition of full length human IKKalpha assessed as residual activity at 10 uM using peptide as substrate after 40 mins by [gamma-33ATP] radiometric assay relative to control
Inhibitor of nuclear factor kappa-B kinase subunit alpha (Homo sapiens), sequence (O15111 whole entry): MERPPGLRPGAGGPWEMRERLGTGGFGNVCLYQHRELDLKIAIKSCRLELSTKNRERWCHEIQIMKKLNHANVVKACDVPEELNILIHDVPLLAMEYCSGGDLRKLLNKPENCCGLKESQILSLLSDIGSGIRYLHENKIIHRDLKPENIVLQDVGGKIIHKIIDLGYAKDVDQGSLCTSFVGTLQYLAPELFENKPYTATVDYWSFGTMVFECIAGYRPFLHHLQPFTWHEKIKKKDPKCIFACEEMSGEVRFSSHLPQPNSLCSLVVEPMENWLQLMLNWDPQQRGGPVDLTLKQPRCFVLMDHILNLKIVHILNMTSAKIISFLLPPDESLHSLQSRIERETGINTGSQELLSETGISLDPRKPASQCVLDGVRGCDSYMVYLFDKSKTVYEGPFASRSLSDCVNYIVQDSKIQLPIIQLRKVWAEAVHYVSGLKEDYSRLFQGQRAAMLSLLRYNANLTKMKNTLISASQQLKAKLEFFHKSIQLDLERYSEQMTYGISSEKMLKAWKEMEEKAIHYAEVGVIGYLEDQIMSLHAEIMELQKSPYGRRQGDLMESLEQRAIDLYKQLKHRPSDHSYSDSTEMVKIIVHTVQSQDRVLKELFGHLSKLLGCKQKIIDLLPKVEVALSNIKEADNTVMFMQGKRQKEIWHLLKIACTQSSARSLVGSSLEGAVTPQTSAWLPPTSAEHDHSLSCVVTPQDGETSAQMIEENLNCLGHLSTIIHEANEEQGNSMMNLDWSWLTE

[8] = target: Protein kinase C theta type (Homo sapiens) (UniProt Q04759); assay: Inhibition of recombinant full length human PKCtheta assessed as residual activity at 10 uM using histone H1 as substrate incubated for 40 mins in presence of [gamma33P]ATP by scintillation counting based radiometry assay relative to control
[9] = target: Serine/threonine-protein kinase NLK (Homo sapiens) (UniProt Q9UBE8); assay: Inhibition of recombinant human NLK (121 to end residues) assessed as residual activity at 10 uM using protein as substrate measured after 40 mins in presence of [gamma33P]ATP by scintillation counting based radiometry assay relative to control
Serine/threonine-protein kinase NLK (Homo sapiens), sequence (Q9UBE8 whole entry): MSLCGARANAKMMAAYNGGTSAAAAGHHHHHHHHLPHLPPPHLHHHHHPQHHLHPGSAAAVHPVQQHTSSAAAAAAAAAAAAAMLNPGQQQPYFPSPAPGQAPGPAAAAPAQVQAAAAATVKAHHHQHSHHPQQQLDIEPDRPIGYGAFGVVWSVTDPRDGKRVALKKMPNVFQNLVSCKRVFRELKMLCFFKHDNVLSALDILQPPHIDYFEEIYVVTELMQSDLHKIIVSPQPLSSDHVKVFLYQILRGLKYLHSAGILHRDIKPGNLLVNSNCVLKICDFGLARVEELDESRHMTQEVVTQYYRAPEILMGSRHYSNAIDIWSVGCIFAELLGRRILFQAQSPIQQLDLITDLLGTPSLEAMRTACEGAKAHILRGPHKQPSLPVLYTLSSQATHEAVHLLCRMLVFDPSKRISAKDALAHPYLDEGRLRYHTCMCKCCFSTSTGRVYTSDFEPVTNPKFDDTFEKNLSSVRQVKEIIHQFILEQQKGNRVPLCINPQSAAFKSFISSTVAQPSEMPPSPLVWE

[10] = target: MAP kinase-interacting serine/threonine-protein kinase 2 (Homo sapiens) (UniProt Q9HBH9); assay: Inhibition of recombinant human MNK2 assessed as residual activity at 10 uM using myelin basic protein as substrate incubated for 40 mins in presence of [gamma-33ATP by scintillation counting based radiometry assay relative to control
[11] = target: Serine/threonine-protein kinase 32B (Homo sapiens) (UniProt Q9NY57); assay: Inhibition of recombinant human full length STK32B assessed as residual activity at 10 uM using casein as substrate incubated for 40 mins in presence of [gamma33P]ATP by scintillation counting based radiometry assay relative to control
Serine/threonine-protein kinase 32B (Homo sapiens), sequence (Q9NY57 whole entry): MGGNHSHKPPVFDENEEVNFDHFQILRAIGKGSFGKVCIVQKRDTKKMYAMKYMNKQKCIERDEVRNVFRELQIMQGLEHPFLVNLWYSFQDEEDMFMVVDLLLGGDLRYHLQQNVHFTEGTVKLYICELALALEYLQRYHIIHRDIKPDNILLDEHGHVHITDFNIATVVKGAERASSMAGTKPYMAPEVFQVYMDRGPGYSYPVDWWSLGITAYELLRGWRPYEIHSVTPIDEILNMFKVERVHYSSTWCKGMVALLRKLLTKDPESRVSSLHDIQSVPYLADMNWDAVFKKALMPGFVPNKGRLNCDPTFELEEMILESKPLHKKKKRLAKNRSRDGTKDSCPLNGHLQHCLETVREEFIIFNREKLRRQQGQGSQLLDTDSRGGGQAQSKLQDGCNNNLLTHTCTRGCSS

[12] = target: Ribosomal protein S6 kinase alpha-1 (Homo sapiens) (UniProt Q15418); assay: Inhibition of recombinant full length human Rsk1 assessed as residual activity at 10 uM using KKKNRTLSVA as substrate incubated for 40 mins in presence of [gamma33P]ATP by scintillation counting based radiometry assay relative to control
Ribosomal protein S6 kinase alpha-1 (Homo sapiens), sequence (Q15418 whole entry, the tested form may be a part): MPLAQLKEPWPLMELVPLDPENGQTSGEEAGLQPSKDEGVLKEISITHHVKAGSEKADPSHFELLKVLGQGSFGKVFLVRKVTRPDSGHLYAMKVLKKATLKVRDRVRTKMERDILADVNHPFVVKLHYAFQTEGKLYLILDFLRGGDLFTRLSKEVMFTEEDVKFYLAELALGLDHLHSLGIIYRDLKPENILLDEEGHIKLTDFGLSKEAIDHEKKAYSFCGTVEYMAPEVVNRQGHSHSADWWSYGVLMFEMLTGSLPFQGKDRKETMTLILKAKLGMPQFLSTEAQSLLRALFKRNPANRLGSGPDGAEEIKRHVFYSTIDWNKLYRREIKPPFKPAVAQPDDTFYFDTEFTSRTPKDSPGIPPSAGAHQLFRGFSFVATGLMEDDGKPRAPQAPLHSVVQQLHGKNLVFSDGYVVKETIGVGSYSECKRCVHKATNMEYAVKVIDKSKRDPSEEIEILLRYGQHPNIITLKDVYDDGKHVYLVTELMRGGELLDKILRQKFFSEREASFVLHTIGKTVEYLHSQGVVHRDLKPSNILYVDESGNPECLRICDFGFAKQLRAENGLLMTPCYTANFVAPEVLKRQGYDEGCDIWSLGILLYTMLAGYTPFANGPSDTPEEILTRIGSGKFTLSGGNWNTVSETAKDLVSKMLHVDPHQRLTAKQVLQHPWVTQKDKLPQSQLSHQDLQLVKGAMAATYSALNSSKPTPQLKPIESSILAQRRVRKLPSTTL

[13] = target: Fibroblast growth factor receptor 2 (Homo sapiens) (UniProt P21802); assay: Inhibition of recombinant human FGFR2 (456 to 770 residues) assessed as residual activity at 10 uM using poly(Glu, Tyr) 4:1 as substrate at 40 mins in presence of [gamma-33ATP] by scintillation counting based radiometry assay relative to control
[14] = target: Ephrin type-A receptor 1 (Homo sapiens) (UniProt P21709); assay: Inhibition of recombinant human EphA1 (568 to end residues) assessed as residual activity at 10 uM using KKKSPGEYVNIEF as substrate at 40 mins in presence of [gamma-33ATP] by scintillation counting based radiometry assay relative to control
Ephrin type-A receptor 1 (Homo sapiens), sequence (P21709 whole entry, the tested form may be a part): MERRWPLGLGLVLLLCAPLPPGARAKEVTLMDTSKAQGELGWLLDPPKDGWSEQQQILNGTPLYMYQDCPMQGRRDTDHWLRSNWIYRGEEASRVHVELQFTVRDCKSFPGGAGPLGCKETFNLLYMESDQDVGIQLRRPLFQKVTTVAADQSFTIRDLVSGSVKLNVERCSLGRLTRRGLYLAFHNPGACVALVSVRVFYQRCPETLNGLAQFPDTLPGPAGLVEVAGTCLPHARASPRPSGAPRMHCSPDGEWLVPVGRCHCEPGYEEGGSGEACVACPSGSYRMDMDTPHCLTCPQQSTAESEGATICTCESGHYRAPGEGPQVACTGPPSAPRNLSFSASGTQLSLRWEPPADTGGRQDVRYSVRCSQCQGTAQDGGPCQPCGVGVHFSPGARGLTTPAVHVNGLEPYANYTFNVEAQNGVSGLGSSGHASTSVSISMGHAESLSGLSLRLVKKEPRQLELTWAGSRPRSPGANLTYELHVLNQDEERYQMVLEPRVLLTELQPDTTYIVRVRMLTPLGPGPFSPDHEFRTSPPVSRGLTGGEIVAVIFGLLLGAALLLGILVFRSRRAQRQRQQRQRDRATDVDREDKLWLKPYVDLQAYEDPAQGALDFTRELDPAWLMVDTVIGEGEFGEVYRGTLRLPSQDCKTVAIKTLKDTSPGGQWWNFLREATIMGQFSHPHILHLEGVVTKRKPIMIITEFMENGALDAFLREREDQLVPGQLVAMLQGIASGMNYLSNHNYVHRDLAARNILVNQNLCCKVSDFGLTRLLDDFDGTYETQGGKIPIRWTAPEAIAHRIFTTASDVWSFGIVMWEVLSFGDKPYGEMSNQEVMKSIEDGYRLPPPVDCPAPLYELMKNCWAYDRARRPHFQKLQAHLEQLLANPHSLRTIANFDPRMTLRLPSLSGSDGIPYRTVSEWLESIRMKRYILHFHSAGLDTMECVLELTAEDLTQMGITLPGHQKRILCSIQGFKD

[15] = target: Focal adhesion kinase 1 (Homo sapiens) (UniProt Q05397); assay: Inhibition of recombinant human FAK (411 to 686 residues) assessed as residual activity at 10 uM using EEEEYEEEEEEYYIIEEEEEEYEEEEEEYYEEEEEEKKKK as substrate at 40 mins in presence of [gamma-33ATP] by scintillation counting based radiometry assay relative to control
[16] = target: Mitogen-activated protein kinase 11 (Homo sapiens) (UniProt Q15759); assay: Inhibition of recombinant human full length SAPK2b assessed as residual activity at 10 uM using myelin basic protein as substrate incubated for 40 mins in presence of [gamma33P]ATP by scintillation counting based radiometry assay relative to control
[17] = target: Ribosomal protein S6 kinase alpha-6 (Homo sapiens) (UniProt Q9UK32); assay: Inhibition of recombinant full length human Rsk4 assessed as residual activity at 10 uM using LRRASLG as substrate incubated for 40 mins in presence of [gamma33P]ATP by scintillation counting based radiometry assay relative to control
[18] = target: Serine/threonine-protein kinase Chk1 (Homo sapiens) (UniProt O14757); assay: Inhibition of recombinant full length human CHK1 assessed as residual activity at 10 uM using KKKVSRSGLYRSPSMPENLNRPR as substrate incubated for 40 mins in presence of [gamma-33ATP] by scintillation counting based radiometry assay relative to control
Homo sapiens = species: Homo sapiens; assay: Inhibition of recombinant human MAPKAPK2 A399G mutant (46 to end residues) assessed as residual activity at 10 uM using KKLNRTLSVA as substrate incubated for 40 mins in presence of [gamma-33ATP by scintillation counting based radiometry assay relative to control
[19] = target: Serine/threonine-protein kinase Nek9 (Homo sapiens) (UniProt Q8TD19); assay: Inhibition of recombinant human NEK9 (1 to 324 residues) assessed as residual activity at 10 uM using myelin basic protein as substrate measured after 40 mins in presence of [gamma33P]ATP by scintillation counting based radiometry assay relative to control
[20] = target: Homeodomain-interacting protein kinase 2 (Homo sapiens) (UniProt Q9H2X6); assay: Inhibition of human HIPK2 (165 to 564 residues) assessed as residual activity at 10 uM using myelin basic protein as substrate after 40 mins by [gamma-33ATP] radiometric assay relative to control

Mast/stem cell growth factor receptor Kit (Homo sapiens), P10721 [V560G], sequence (P10721 whole entry V560G): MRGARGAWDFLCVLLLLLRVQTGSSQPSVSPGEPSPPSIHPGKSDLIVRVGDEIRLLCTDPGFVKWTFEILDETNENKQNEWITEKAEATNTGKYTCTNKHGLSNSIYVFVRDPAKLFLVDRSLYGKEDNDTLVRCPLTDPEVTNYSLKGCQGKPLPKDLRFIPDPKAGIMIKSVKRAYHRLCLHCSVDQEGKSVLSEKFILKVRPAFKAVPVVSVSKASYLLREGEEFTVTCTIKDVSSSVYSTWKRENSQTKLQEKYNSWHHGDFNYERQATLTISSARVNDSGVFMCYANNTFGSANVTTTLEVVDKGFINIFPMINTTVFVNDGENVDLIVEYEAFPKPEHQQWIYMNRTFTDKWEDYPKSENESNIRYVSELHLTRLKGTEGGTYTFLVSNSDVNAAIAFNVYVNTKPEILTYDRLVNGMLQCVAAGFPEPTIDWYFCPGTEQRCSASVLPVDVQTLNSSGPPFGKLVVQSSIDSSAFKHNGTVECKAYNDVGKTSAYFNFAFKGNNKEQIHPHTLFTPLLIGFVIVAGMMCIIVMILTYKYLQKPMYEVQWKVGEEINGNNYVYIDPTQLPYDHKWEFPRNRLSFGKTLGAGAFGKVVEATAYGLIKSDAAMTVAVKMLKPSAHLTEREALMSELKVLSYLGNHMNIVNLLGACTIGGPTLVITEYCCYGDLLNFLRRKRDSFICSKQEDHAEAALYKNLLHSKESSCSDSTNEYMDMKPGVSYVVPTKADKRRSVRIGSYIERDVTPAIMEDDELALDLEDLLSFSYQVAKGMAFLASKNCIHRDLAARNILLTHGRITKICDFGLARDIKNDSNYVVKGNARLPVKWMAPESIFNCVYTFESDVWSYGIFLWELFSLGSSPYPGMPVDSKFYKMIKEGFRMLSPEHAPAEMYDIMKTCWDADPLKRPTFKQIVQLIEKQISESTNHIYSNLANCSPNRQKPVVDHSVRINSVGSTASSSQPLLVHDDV

C[C@@H](c1ccccc1)n1nnc2cnc3ccc(-c4cnc5[nH]ccc5c4)cc3c21
Activity [1]: 3% | Activity [2]: 81% | Activity [3]: 3% | Activity [4]: 79% | Activity [5]: 83% | Activity [6]: 52% | Activity [7]: 90% | Activity [8]: 70% | Activity [9]: 43% | Activity [10]: 84% | Activity [11]: 88% | Activity [12]: 46% | Activity [13]: 32% | Activity [14]: 91% | Activity [15]: 82% | Activity [16]: 93% | Activity [17]: 62% | Activity [18]: 140% | Activity (Homo sapiens): 67% | Activity [19]: 97% | Activity [20]: 93%
